Source: PubChem BioAssay (NCI)
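GI50 = concentration required for 50% inhibition of growth. TGI is the concentration that stops growth completely.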

Tests used:
Experiment in all cases: DTP human tumour cell line panel, 384-well format
SK-MEL-28 melanoma = tested on: SK-MEL-28 melanoma
T-47D breast = tested on: T-47D breast
MDA-MB-435 melanoma = tested on: MDA-MB-435 melanoma
MALME-3M melanoma = tested on: MALME-3M melanoma
CAKI-1 renal = tested on: CAKI-1 renal
COLO 205 colon = tested on: COLO 205 colon
SNB-19 CNS = tested on: SNB-19 CNS
MDA-MB-468 breast = tested on: MDA-MB-468 breast
BT-549 breast = tested on: BT-549 breast
U251 glioblastoma = tested on: U251 glioblastoma
PC-3 prostate = tested on: PC-3 prostate
NCI-H322M lung = tested on: NCI-H322M lung
MCF7 breast = tested on: MCF7 breast
UACC-257 melanoma = tested on: UACC-257 melanoma
MOLT-4 leukemia = tested on: MOLT-4 leukemia
ACHN renal = tested on: ACHN renal
786-0 renal = tested on: 786-0 renal
HCC-2998 colon = tested on: HCC-2998 colon
UO-31 renal = tested on: UO-31 renal
IGROV1 ovarian = tested on: IGROV1 ovarian
A549 NSCLC = tested on: A549 NSCLC
HT29 colon = tested on: HT29 colon
HOP-92 NSCLC = tested on: HOP-92 NSCLC
NCI/ADR-RES ovarian = tested on: NCI/ADR-RES ovarian
SF-268 CNS = tested on: SF-268 CNS
A498 renal = tested on: A498 renal
M14 melanoma = tested on: M14 melanoma
SK-OV-3 ovarian = tested on: SK-OV-3 ovarian
HCT-15 colon = tested on: HCT-15 colon
SR leukemia = tested on: SR leukemia
K-562 leukemia = tested on: K-562 leukemia
SF-295 CNS = tested on: SF-295 CNS
OVCAR-3 ovarian = tested on: OVCAR-3 ovarian
OVCAR-8 ovarian = tested on: OVCAR-8 ovarian
CCRF-CEM leukemia = tested on: CCRF-CEM leukemia
TK-10 renal = tested on: TK-10 renal
RPMI-8226 leukemia = tested on: RPMI-8226 leukemia
LOX IMVI melanoma = tested on: LOX IMVI melanoma
DU-145 prostate = tested on: DU-145 prostate
SN12C renal = tested on: SN12C renal
RXF 393 renal = tested on: RXF 393 renal
NCI-H23 lung = tested on: NCI-H23 lung
MDA-MB-231 breast = tested on: MDA-MB-231 breast
SK-MEL-2 melanoma = tested on: SK-MEL-2 melanoma
KM12 colon = tested on: KM12 colon
NCI-H460 NSCLC = tested on: NCI-H460 NSCLC
NCI-H226 lung = tested on: NCI-H226 lung
NCI-H522 lung = tested on: NCI-H522 lung
SF-539 CNS = tested on: SF-539 CNS
OVCAR-4 ovarian = tested on: OVCAR-4 ovarian
HOP-62 NSCLC = tested on: HOP-62 NSCLC
UACC-62 melanoma = tested on: UACC-62 melanoma
HCT-116 colon = tested on: HCT-116 colon
HL-60(TB) leukemia = tested on: HL-60(TB) leukemia
SW-620 colon = tested on: SW-620 colon
SK-MEL-5 melanoma = tested on: SK-MEL-5 melanoma
OVCAR-5 ovarian = tested on: OVCAR-5 ovarian

Compound: Cc1c(COc2cc(OCc3cccc(C#N)c3)c(CN3C[C@H](O)C[C@@H]3C(=O)O)cc2Cl)cccc1-c1ccc2c(c1)OCCO2
- GI50 (SK-MEL-28 melanoma): 2.71 µM
- TGI (SK-MEL-28 melanoma): 7.55 µM
- GI50 (T-47D breast): 2.97 µM
- TGI (T-47D breast): 12.9 µM
- GI50 (MDA-MB-435 melanoma): 4.35 µM
- TGI (MDA-MB-435 melanoma): 14.2 µM
- GI50 (MALME-3M melanoma): 5.72 µM
- TGI (MALME-3M melanoma): 17.5 µM
- GI50 (CAKI-1 renal): 6.69 µM
- TGI (CAKI-1 renal): 18.8 µM
- GI50 (COLO 205 colon): 4.51 µM
- TGI (COLO 205 colon): 14.6 µM
- GI50 (SNB-19 CNS): 4.11 µM
- TGI (SNB-19 CNS): 13.5 µM
- GI50 (MDA-MB-468 breast): 2.7 µM
- TGI (MDA-MB-468 breast): 6.92 µM
- GI50 (BT-549 breast): 3.4 µM
- TGI (BT-549 breast): 12 µM
- GI50 (U251 glioblastoma): 3.38 µM
- TGI (U251 glioblastoma): 10.6 µM
- GI50 (PC-3 prostate): 3.58 µM
- TGI (PC-3 prostate): 10.3 µM
- GI50 (NCI-H322M lung): 7.65 µM
- TGI (NCI-H322M lung): 20.2 µM
- GI50 (MCF7 breast): 2.34 µM
- TGI (MCF7 breast): 6.63 µM
- GI50 (UACC-257 melanoma): 2.63 µM
- TGI (UACC-257 melanoma): 8.02 µM
- GI50 (MOLT-4 leukemia): 1.77 µM
- TGI (MOLT-4 leukemia): 3.16 µM
- GI50 (ACHN renal): 10.4 µM
- TGI (ACHN renal): 22.3 µM
- GI50 ([…]-0 renal): 3.82 µM
- TGI (786-0 renal): 13.7 µM
- GI50 (HCC-2998 colon): 1.47 µM
- TGI (HCC-2998 colon): 3.59 µM
- GI50 (UO-31 renal): 1.93 µM
- TGI (UO-31 renal): 3.79 µM
- GI50 (IGROV1 ovarian): 3.93 µM
- TGI (IGROV1 ovarian): 14.2 µM
- GI50 (A549 NSCLC): 10.6 µM
- TGI (A549 NSCLC): 22.5 µM
- GI50 (HT29 colon): 2.42 µM
- TGI (HT29 colon): 5.77 µM
- GI50 (HOP-92 NSCLC): 2.4 µM
- TGI (HOP-92 NSCLC): 6 µM
- GI50 (NCI/ADR-RES ovarian): 77.7 µM
- TGI (NCI/ADR-RES ovarian): > 100 µM
- GI50 (SF-268 CNS): 3.98 µM
- TGI (SF-268 CNS): 14.5 µM
- GI50 (A498 renal): 3.27 µM
- TGI (A498 renal): 11.7 µM
- GI50 (M14 melanoma): 3.64 µM
- TGI (M14 melanoma): 11.6 µM
- GI50 (SK-OV-3 ovarian): 5.17 µM
- TGI (SK-OV-3 ovarian): 16.3 µM
- GI50 (HCT-15 colon): 4.4 µM
- TGI (HCT-15 colon): 14.8 µM
- GI50 (SR leukemia): 1.69 µM
- TGI (SR leukemia): 3.06 µM
- GI50 (K-562 leukemia): 3.46 µM
- TGI (K-562 leukemia): 12.1 µM
- GI50 (SF-295 CNS): 3.09 µM
- TGI (SF-295 CNS): 8.92 µM
- GI50 (OVCAR-3 ovarian): 2.37 µM
- TGI (OVCAR-3 ovarian): 6.1 µM
- GI50 (OVCAR-8 ovarian): 4.21 µM
- TGI (OVCAR-8 ovarian): 15.5 µM
- GI50 (CCRF-CEM leukemia): 1.81 µM
- TGI (CCRF-CEM leukemia): 3.26 µM
- GI50 (TK-10 renal): 3.11 µM
- TGI (TK-10 renal): 9.29 µM
- GI50 (RPMI-8226 leukemia): 1.67 µM
- TGI (RPMI-8226 leukemia): 3.04 µM
- GI50 (LOX IMVI melanoma): 2.68 µM
- TGI (LOX IMVI melanoma): 6.63 µM
- GI50 (DU-145 prostate): 7.96 µM
- TGI (DU-145 prostate): 20.5 µM
- GI50 (SN12C renal): 5.41 µM
- TGI (SN12C renal): 16.4 µM
- GI50 (RXF 393 renal): 1.41 µM
- TGI (RXF 393 renal): 3.5 µM
- GI50 (NCI-H23 lung): 10.4 µM
- TGI (NCI-H23 lung): 22.2 µM
- GI50 (MDA-MB-231 breast): 3.23 µM
- TGI (MDA-MB-231 breast): 9.47 µM
- GI50 (SK-MEL-2 melanoma): 1.93 µM
- TGI (SK-MEL-2 melanoma): 3.76 µM
- GI50 (KM12 colon): 3.38 µM
- TGI (KM12 colon): 10.9 µM
- GI50 (NCI-H460 NSCLC): 3.45 µM
- TGI (NCI-H460 NSCLC): 12.4 µM
- GI50 (NCI-H226 lung): 2.6 µM
- TGI (NCI-H226 lung): 7.19 µM
- GI50 (NCI-H522 lung): 2.73 µM
- TGI (NCI-H522 lung): 9.61 µM
- GI50 (SF-539 CNS): 3.25 µM
- TGI (SF-539 CNS): 11.6 µM
- GI50 (OVCAR-4 ovarian): 4.03 µM
- TGI (OVCAR-4 ovarian): 16 µM
- GI50 (HOP-62 NSCLC): 3.97 µM
- TGI (HOP-62 NSCLC): 15.4 µM
- GI50 (UACC-62 melanoma): 2.3 µM
- TGI (UACC-62 melanoma): 5.05 µM
- GI50 (HCT-116 colon): 2.81 µM
- TGI (HCT-116 colon): 7.43 µM
- GI50 (HL-60(TB) leukemia): 2.1 µM
- TGI (HL-60(TB) leukemia): 3.54 µM
- GI50 (SW-620 colon): 5.44 µM
- TGI (SW-620 colon): 17 µM
- GI50 (SK-MEL-5 melanoma): 1.72 µM
- TGI (SK-MEL-5 melanoma): 4.31 µM
- GI50 (OVCAR-5 ovarian): 15 µM
- TGI (OVCAR-5 ovarian): 28.2 µM
